US20250333530A1 (Hoffmann-La Roche Inc., priority 2024, published 2025)
Entries after “also recorded” stand apart in the source; their conditions may differ.

Columns and labels:
[1] = tested on: OCI-Ly18 tumor; test: Dexamethasone scheduling with glofitamab, gemcitabine and oxaliplatin: tumor growth; format: in vivo, humanized BRGS-CD47 mice
Description: Human OCI-Ly18 (Diffuse Large B-Cell Lymphoma; DLBCL) cells were originally obtained from ATCC and subsequently expanded and deposited in the Roche Glycart internal cell bank. Cells were cultured in RPMI medium containing 10% fetal calf serum (FCS) and 1× GLUTAMAX®. The cells were maintained at 37° C. in a water-saturated atmosphere with 5% CO2. A 50 μL cell suspension (5×10^6 OCI-Ly18 cells) mixed with 50 μL Matrigel was injected subcutaneously into the flank of anesthetized mice using a 22G to 30G needle. […] Health monitoring was performed regularly. At the appropriate time, mice were injected subcutaneously with tumor cells as described and treated with the compounds or histidine buffer (Vehicle; Group A) when tumor size reached approximately 200 mm^3 (Day 7). […] Gemcitabine and oxaliplatin were injected intraperitoneally (i.p.), glofitamab intravenously (i.v.), and dexamethasone was administered via oral gavage. Groups A-D received no dexamethasone: • Group A: vehicle (control group). • Group B: glofitamab monotherapy • Group C: gemcitabine and oxaliplatin. • Group D: glofitamab, gemcitabine and oxaliplatin. […] [table] All mice were injected with the appropriate solutions. […] Subsequent combination treatments were carried out concomitantly. To obtain the proper amount of compounds per injection volume, the stock solutions (Table 20) were diluted with histidine buffer when necessary. Tumor growth was measured three times weekly using a caliper and tumor volume was calculated as followed: The study was terminated at day 60 after a total of 7 cycles of treatment.

[2] = tested on: serum cytokines; test: Dexamethasone scheduling with glofitamab: serum cytokines by multiplex assay; format: in vivo, humanized BRGS-CD47 mice; conditions: for Serum cytokine levels 4 hours after the first glofitamab injection: glofitamab 0.15 mg/kg i.v., dexamethasone co-administered in Groups C-G (2-6 mg/kg orally)
Description: Group B animals (n=14) were injected intravenously with glofitamab only (0.15 mg/kg at first and 0.5 mg/kg at subsequent injections in 200 μL of histidine buffer) once weekly for 5 weeks.
Serum was prepared by centrifugation.
Serum was collected and stored at −20° C. Serum samples were diluted 1:10 and used for the analysis of different cytokines/chemokines using the Bio-Plex Pro™ Human Chemokine Panel, 40-Plex system (Catalog No. 171AK99MR2; Bio-Rad; Hercules, CA), following the manufacturer's instructions.

[3] = tested on: serum cytokines; conditions: day 10
Description: Cytokine measurement was carried out with the Luminex™ FLEXMAP 3D™ system using Bio-Plex Pro Human Cytokine Assay according to the manufacturer's instruction.

[4] = in vivo

Compound | Anti-tumor effect of glofitamab + gemcitabine + oxaliplatin with added dexamethasone ([1]; dexamethasone 4 mg/kg p.o., Groups E-H, correlated with frequency of dexamethasone administration) | Anti-tumor effect vs CD20-TCB and chemotherapy without dexamethasone ([1]; dexamethasone 4 mg/kg p.o., Groups G and H (most frequent injections), study termination) | Serum cytokine levels 28 hours after the first glofitamab injection vs glofitamab only ([2]; 1 or 2 dexamethasone doses prior to glofitamab only (Groups C and E)) | IL-6 and IL-10 levels with additional dexamethasone premedication dose ([2]; 24-hour pre-glofitamab administration) | IL-6 with dexamethasone post treatment dose ([2]; 24 hours post-glofitamab administration, 28 hours post-glofitamab time point) | Levels of some cytokines (e.g., GM-CSF), second dexamethasone dose prior to glofitamab vs only 1 dose ([2]; Groups D-G, 4 hours after first glofitamab injection) | Serum cytokine levels 28 hours after the first glofitamab injection ([2]; dexamethasone prior to and after glofitamab injection (Groups D and F), mainly IL-6, MIP1β, MIP1α, TNFα reduced) | Serum cytokine levels 4 hours after the first glofitamab injection [2] | Serum IFN-γ and IL-2 ([3]; Groups F and H) | Serum MCP-1 and IL-8 ([3]; Groups F and H) | CRS-related serum cytokines, such as IL-6, vs glofitamab monotherapy group ([3]; additional dexamethasone injection 24 hours post glofitamab (Groups F and H)) | Pharmacokinetics on co-administration with gemcitabine or oxaliplatin [4] | Tumor growth (tumor volume) up to day 60 ([1]; 7 weekly cycles, glofitamab 0.15/0.5 mg/kg i.v., gemcitabine/oxaliplatin 50/3 mg/kg i.p., no dexamethasone (Groups B-D)) | Serum cytokine levels after the second glofitamab injection ([2]; 0.5 mg/kg, much lower than after the first cycle) | Serum cytokine levels 28 hours after the first glofitamab injection ([2]; glofitamab monotherapy (Group B))
C[C@@H]1C[C@H]2[C@@H]3CCC4=CC(=O)C=C[C@]4(C)[C@@]3(F)[C@@H](O)C[C@]2(C)[C@@]1(O)C(=O)COP(=O)(O)O [dexamethasone, Dexamethasone sodium phosphate] | improvement in anti-tumor effects | statistically significant better anti-tumor effects | No difference in cytokine levels | reduced IL-6, and to some extent IL-10 levels, at the early time point, with no mitigation capacity at the later time point | mitigated IL-6 at the later time point | further reduced the levels of some cytokines | effectively mitigated cytokine levels for an extended duration; also recorded: very low cytokine levels | significantly reduced cytokine levels | did not show as strong a reduction | statistically reduced | significant reduction |  |  |  | 
glofitamab: anti-CD20/anti-CD3 bispecific antibody, 2:1 configuration; CAS 2229047-91-8 |  |  |  |  |  |  |  | strong cytokine release |  |  |  | not affected | initially elicited a robust inhibition of tumor growth, which was subsequently followed by tumor recurrence in all treated mice | did not show an increase in cytokine levels | higher cytokine levels
